In PubChem BioAssay AID1794828:

Molecular target: Solute carrier family 2, facilitated glucose transporter member 4 (Homo sapiens) (UniProt P14672)
Experiment: SLC2A4-mediated glucose transport modulation – cell-based, flow cytometry, glucose FRET sensor, HEK293 JumpIN TRex, wild type, dose response (AID 1794828)
Settings: HEK293 JumpIN SLC2A4-OE

Chain of Solute carrier family 2, facilitated glucose transporter member 4 (Homo sapiens) (P14672 whole entry, looked up): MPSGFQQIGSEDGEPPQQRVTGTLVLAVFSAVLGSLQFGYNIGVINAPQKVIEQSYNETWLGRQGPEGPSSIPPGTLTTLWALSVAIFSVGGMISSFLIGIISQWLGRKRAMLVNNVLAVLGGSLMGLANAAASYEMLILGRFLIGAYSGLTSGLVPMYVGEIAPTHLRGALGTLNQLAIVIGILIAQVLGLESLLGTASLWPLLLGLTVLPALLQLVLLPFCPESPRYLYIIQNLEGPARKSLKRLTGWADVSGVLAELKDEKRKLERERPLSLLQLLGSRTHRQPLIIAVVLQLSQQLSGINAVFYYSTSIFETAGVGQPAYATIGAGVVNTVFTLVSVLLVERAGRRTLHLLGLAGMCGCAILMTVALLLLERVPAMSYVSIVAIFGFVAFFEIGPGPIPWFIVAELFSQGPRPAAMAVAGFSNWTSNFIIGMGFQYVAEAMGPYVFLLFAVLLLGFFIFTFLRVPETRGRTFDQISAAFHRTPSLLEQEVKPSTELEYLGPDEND

Row | IC50 [µM] | EC50 (substrate uptake, increase) [µM] | Compound
1 | 2.5 | – | O=C(Oc1cccc(F)c1OC(=O)c1cccc(O)c1)c1cccc(O)c1
2 | 5.5 | – | Cc1c(NC(=O)c2cc(C(N)=O)nc3cc(F)ccc23)c(C(F)(F)F)nn1Cc1ccc(C#N)cc1
3 | – | 860 | OC[C@H]1OC(O)[C@H](O)[C@@H](O)[C@@H]1O (stereo partly drawn)
